Several values for one entry are separate records, joined by “and”; a condition that tells them apart may be missing. Equal entries are not always repeated.
Tested on: 885512-296-R-J2-PDC complex spheroid growth, % test/control
Experiment: Anticancer human tumor 885512-296-R-J2-PDC patient-derived breast carcinoma cell line growth inhibition [Asc]
Conditions: for viability, T/C: stronger effect = lower value; active means viability on the fitted dose curve at most 10% of control; inactive means the rest
Summary of the method: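 Tumor cells were grown as multicellular spheroids with stromal HUVEC and mesenchymal stem cells and treated singly or in combination. Concentrations fell in half-log steps from the clinical Cmax, or from 10 microM where none was known.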

[1] = curve of first compound, second compound 0.03 µM
[2] = curve of first compound, second compound 0.0949 µM
[3] = curve of first compound, second compound 0.3 µM
[4] = curve of first compound, second compound 0.949 µM
[5] = curve of first compound, second compound 3 µM
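Further: spheroids exposed to compounds for seven days.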
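Wherever viability, T/C is given: 100% = DMSO vehicle control wells.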

Cc1nc(N2CCC3(CC2)COC(C)C3N)c(CO)nc1Sc1ccnc(N)c1Cl (configuration not stated) + CCN1C(C(=O)NC23CCC(C(=O)O)(CC2)CC3)C(c2cccc(Cl)c2F)C2(C(=O)Nc3cc(Cl)ccc32)C12CCCCC2
361 nM: IC50 [1]
134 nM: IC50 [2]
59.8 nM: IC50 [4]
165 nM: IC50 [3]
< 9.49 nM: IC50 [5]
inactive: viability, T/C (second compound 0.03 µM, first compound 0.00949 µM) 90.6% | viability, T/C (second compound 0.03 µM, first compound 0.03 µM) 79% | viability, T/C (second compound 0.03 µM, first compound 0.0949 µM) 59.8% | viability, T/C (second compound 0.03 µM, first compound 0.3 µM) 51.6% | viability, T/C (second compound 0.03 µM, first compound 0.949 µM) 45.2% | viability, T/C (second compound 0.03 µM, first compound 3 µM) 35.4% | viability, T/C (second compound 0.0949 µM, first compound 0.00949 µM) 96.5% | viability, T/C (second compound 0.0949 µM, first compound 0.03 µM) 78.9% | viability, T/C (second compound 0.0949 µM, first compound 0.0949 µM) 51.2% | viability, T/C (second compound 0.0949 µM, first compound 0.3 µM) 45.4% | viability, T/C (second compound 0.0949 µM, first compound 0.949 µM) 41.3% | viability, T/C (second compound 0.0949 µM, first compound 3 µM) 35.5% | viability, T/C (second compound 0.3 µM, first compound 0.00949 µM) 82.3% | viability, T/C (second compound 0.3 µM, first compound 0.03 µM) 60.2% | viability, T/C (second compound 0.3 µM, first compound 0.0949 µM) 51.6% | viability, T/C (second compound 0.3 µM, first compound 0.3 µM) 53.1% | viability, T/C (second compound 0.3 µM, first compound 0.949 µM) 42.8% | viability, T/C (second compound 0.3 µM, first compound 3 µM) 36.9% | viability, T/C (second compound 0.949 µM, first compound 0.00949 µM) 59.3% | viability, T/C (second compound 0.949 µM, first compound 0.03 µM) 51.1% | viability, T/C (second compound 0.949 µM, first compound 0.0949 µM) 46.9% | viability, T/C (second compound 0.949 µM, first compound 0.3 µM) 46.2% | viability, T/C (second compound 0.949 µM, first compound 0.949 µM) 39.1% | viability, T/C (second compound 0.949 µM, first compound 3 µM) 35.2% | viability, T/C (second compound 3 µM, first compound 0.00949 µM) 39.3% | viability, T/C (second compound 3 µM, first compound 0.03 µM) 35% | viability, T/C (second compound 3 µM, first compound 0.0949 µM) 28.1% | viability, T/C (second compound 3 µM, first compound 0.3 µM) 32% | viability, T/C (second compound 3 µM, first compound 0.949 µM) 30.3% | viability, T/C (second compound 3 µM, first compound 3 µM) 27.1%

C=CC(=O)N1CCN(c2nc(=O)n(-c3c(C)ccnc3C(C)C)c3nc(-c4c(O)cccc4F)c(F)cc23)C(C)C1 (configuration not stated)
inactive: viability, T/C (compound 0.0316 µM) 90.3% and 85.9% and 94.9% | viability, T/C (compound 0.1 µM) 104% and 108% and 86.1% | viability, T/C (compound 0.316 µM) 108% and 104% and 90.2% | viability, T/C (compound 1 µM) 108% and 124% and 103% | viability, T/C (compound 3.16 µM) 77.3% and 101% and 95.2% | viability, T/C (compound 10 µM) 60.6% and 59.6% and 78.4%
> 10000 nM: IC50 (curve of compound)

C=CC(=O)N1CCN(c2nc(=O)n(-c3c(C)ccnc3C(C)C)c3nc(-c4c(O)cccc4F)c(F)cc23)C(C)C1 (configuration not stated) + CCN1C(C(=O)NC23CCC(C(=O)O)(CC2)CC3)C(c2cccc(Cl)c2F)C2(C(=O)Nc3cc(Cl)ccc32)C12CCCCC2
< 31.6 nM: IC50 [5]
inactive: viability, T/C (second compound 0.03 µM, first compound 0.0316 µM) 93.7% | viability, T/C (second compound 0.03 µM, first compound 0.1 µM) 96.8% | viability, T/C (second compound 0.03 µM, first compound 0.316 µM) 111% | viability, T/C (second compound 0.03 µM, first compound 1 µM) 112% | viability, T/C (second compound 0.03 µM, first compound 3.16 µM) 101% | viability, T/C (second compound 0.03 µM, first compound 10 µM) 61.3% | viability, T/C (second compound 0.0949 µM, first compound 0.0316 µM) 73.5% | viability, T/C (second compound 0.0949 µM, first compound 0.1 µM) 108% | viability, T/C (second compound 0.0949 µM, first compound 0.316 µM) 114% | viability, T/C (second compound 0.0949 µM, first compound 1 µM) 108% | viability, T/C (second compound 0.0949 µM, first compound 3.16 µM) 96.3% | viability, T/C (second compound 0.0949 µM, first compound 10 µM) 64% | viability, T/C (second compound 0.3 µM, first compound 0.0316 µM) 89.8% | viability, T/C (second compound 0.3 µM, first compound 0.1 µM) 88.3% | viability, T/C (second compound 0.3 µM, first compound 0.316 µM) 117% | viability, T/C (second compound 0.3 µM, first compound 1 µM) 95.3% | viability, T/C (second compound 0.3 µM, first compound 3.16 µM) 101% | viability, T/C (second compound 0.3 µM, first compound 10 µM) 72% | viability, T/C (second compound 0.949 µM, first compound 0.0316 µM) 68.7% | viability, T/C (second compound 0.949 µM, first compound 0.1 µM) 71.2% | viability, T/C (second compound 0.949 µM, first compound 0.316 µM) 70% | viability, T/C (second compound 0.949 µM, first compound 1 µM) 86.9% | viability, T/C (second compound 0.949 µM, first compound 3.16 µM) 91.8% | viability, T/C (second compound 0.949 µM, first compound 10 µM) 61% | viability, T/C (second compound 3 µM, first compound 0.0316 µM) 38.8% | viability, T/C (second compound 3 µM, first compound 0.1 µM) 52.6% | viability, T/C (second compound 3 µM, first compound 0.316 µM) 46.4% | viability, T/C (second compound 3 µM, first compound 1 µM) 61.1% | viability, T/C (second compound 3 µM, first compound 3.16 µM) 58.5% | viability, T/C (second compound 3 µM, first compound 10 µM) 52.2%
> 10000 nM: IC50 [1] | IC50 [2] | IC50 [3] | IC50 [4]

Reference: PubChem BioAssay AID1963447 (Molecular Pharmacology Branch, DTP, NCI, 2024)
